Source: patent publication US20260176283A1, “IONIZABLE LIPIDS WITH LINEAR HEAD GROUPS” (Beam Therapeutics Inc., priority 2023, published 2026)
Values joined by “and” are separate entries in the source; they are usually repeats but may differ in a detail not shown here. Equal entries are not always repeated.

What was measured:
[1] = LNP preparation characterization (encapsulation efficiency, DLS size and polydispersity), barcoded screen LNPs; format: physicochemical; details: LNP 47.5% ionizable lipid: 40% cholesterol: 2.5% PEG-2000 DMG: 10% DPSC, N/P 4.5-6; for AVG PDI / AVG Z Dia (nm): DLS
Experimental: Lipid nanoparticle components were dissolved in 100% ethanol at specified lipid component molar ratios. Nucleic acid (NA) cargo was dissolved in 10 mM citrate, 100 mM NaCl, pH 4.0, resulting in a concentration of NA cargo of approximately 0.22 mg/mL. In some embodiments, NA cargos included both a functional NA and a reporter barcode mixed at mass ratios of 1:10 to 10:1 functional NA to barcode. As described herein, a NA can be a siRNA, an anti-sense, an expressing DNA, or mRNA.
LNP preparations were prepared with 47.5% Ionizable Lipid (e.g., a compound provided herein): 40% cholesterol: 2.5% PEG-2000 DMG: 10% DPSC and an N/P ratio range of 4.5-6. LNP preparations were formed by microfluidic mixing of the lipid and NA solutions using Precision Nanosystems NanoAssemblr Spark or Benchtop series Instruments, according to the manufacturer's protocol.
A ratio of aqueous to organic solvent of approximately 2:1 or 3:1 was maintained during mixing using differential flow rates. After mixing, LNP preparations were collected, diluted in phosphate buffer saline (PBS) or Tris-buffered saline (TBS) (approximately 1:1 v/v). Further buffer exchange was conducted using dialysis in PBS or TBS at 4° C. for 4 to 24 hours against a 20 kDa filter. After this initial dialysis, each individual LNP preparation may be characterized via dynamic light scattering (DLS) to measure the size (e.g., diameter) and polydispersity. LNP preparations falling within specific diameter and polydispersity ranges were pooled, and further dialyzed against PBS or TBS at 4° C. for 1 to 4 hours against a 100 kDa dialysis cassette. After the second dialysis, LNP preparations were sterile filtered using 0.22 μm filter and stored at 4° C. for further use.

[2] = LNP characterization of base editor LNP preparations (DLS diameter, PDI, encapsulation efficiency); format: physicochemical
Experimental: (§1) Lipid nanoparticle components are dissolved in 100% ethanol at specified lipid component molar ratios. mRNA encoding an adenine base editor and a chemically-modified sgRNA is dissolved at a mass ratio of 1:1 in 10 mM citrate, 100 mM NaCl, pH 4.0, resulting in a concentration of NA cargo of approximately 0.22 mg/mL. LNP preparations are formulated with molar ratios of either 50% Ionizable Lipid: 38.5% Cholesterol: 1.5% PEG2000-DMG: 10% DSPC or 47.5% Ionizable Lipid: 40% Cholesterol: 2.5% PEG2000-DMG: 10% DSPC both at a total lipid to NA molar ratio of 6.
(§2) LNP preparations are formed by microfluidic mixing of the lipid and NA solutions using a Precision Nanosystems NanoAssemblr Ignite Instrument, according to the manufacturer's protocol. A 3:1 ratio of aqueous to organic solvent is maintained during mixing using differential flow rates. After mixing, LNP preparations are collected, diluted in PBS (approximately 2:1 v/v), and further buffer exchange is conducted using dialysis in PBS at 4° C. for 8 to 24 hours against a 20 kDa filter. After this initial dialysis, each individual LNP preparation is characterized via dynamic light scattering (DLS) to measure size and polydispersity. pKa of a subpopulation of LNP preparations is measured via TNS assay. After dialysis, LNP preparations are sterile filtered using 0.22 micron sterile filter and stored at 4° C. for further use. In some embodiments, LNP preparations may be concentrated using 100 kDa Amicon filters per manufacturer's protocol.
DLS—LNP preparation hydrodynamic diameter and polydispersity index (PDI) is measured using high throughput dynamic light scattering (DLS) (DynaPro plate reader II, Wyatt). LNP preparations are diluted 1×PBS to an appropriate concentration and analyzed.
Concentration of NA is determined by Qubit microRNA kit (for siRNA) or HS RNA kit (for mRNA) per manufacturer's instructions. Encapsulation efficiency is determined by measuring unlysed and lysed LNPs.

ALAS1 target site = assay: In vivo base editing with ABE mRNA and sgRNA targeting ALAS1; design: species or system Balb/c mice; details: for Liver Editing A->G (%): formulation ratio 50:38.5:1.5:10, liver, 4 days after dosing; for Quadrecept Editing A->G (%): formulation ratio 50:38.5:1.5:10, quadricep muscle
Experimental: as §1, §2
Male Balb/C mice aged approximately 8-12 weeks are used in the experiments described herein. Each mouse is temporarily restrained, and LNP preparations are administered IV via tail vein injection. Age-matched mice are also used to administer vehicle (1×PBS) via tail vein injection as a control. Four to six days post-dose, tissues including liver, spleen, heart and muscle are collected (only liver and muscle (quardracept) are reported). Genomic DNA is isolated and fragmented and adapter-ligated using the Nextera DNA Flex Library Prep Kit (Illumina) using the 96-well plate Nextera indexing primers (Illumina), according to the manufacturer's instructions. Library size and concentration is confirmed by Fragment Analyzer (Agilent) and sent to Novogene for whole genome sequencing using an Illumina HiSeq.
For base editing, mRNA encoding an adenine base editor (ABE) and a guide RNA (sgRNA) targeting ALAS1 at 1:1 (mass ratio) are coencapsulated in LNP preparations as described herein. LNP preparations are administrated into Balb/c mice through tail vein injections at concentrations ranging from 0.05 to 3.0 mg/kg total RNA. At 4 days after dosing, mice are euthanized and liver, spleen and bone barrow are harvested. Base editing is determined by performing targeted deep sequencing analysis at the ALAS1 target site using extracted genomic DNA.

[3] = Table C LNPs, formulation ratio 47.5:40:2.5:10, ABE mRNA/ALAS1 sgRNA
[4] = Table D LNPs, formulation ratio 50:38.5:1.5:10, ABE mRNA/ALAS1 sgRNA

C=CCCCCCC(CCCCCC=C)OC(=O)CCCCCC(=O)OCCCC(CCCOC(=O)CCCCCC(=O)OC(CCCCCC=C)CCCCCC=C)OC(=O)CCCN1CCCC1 [Compound (22), O1-[7-[7-(1-hept-6-enyloct-7-enoxy)-7-oxo-heptanoyl]oxy-4-(4-pyrrolidin-1-ylbutanoyloxy)heptyl] O7-(1-hept-6-enyloct-7-enyl) heptanedioate]
AVG EE(%) [1]: 88.1% | AVG PDI [1]: 0.07 | AVG Z Dia (nm) [1]: 90.80 nm | Diameter (nm) [2, 3]: 90.8 nm | EE (%) [2, 3]: 88.09% | PDI (%) [2, 3]: 6.8%

C=CCCCCCC(CCCCCC=C)OC(=O)CCCCC(=O)OCC(COC(=O)CCCCC(=O)OC(CCCCCC=C)CCCCCC=C)COC(=O)CCCN1CCCC1 [Compound (11), 1-[2-({[6-Oxo-6-(pentadeca-1,14-dien-8-yloxy)hexanoyl]oxy}methyl)-3-{[4-(pyrrolidin-1-yl)butanoyl]oxy}propyl]6-pentadeca-1,14-dien-8-yl hexanedioate]
Diameter (nm) [2, 4]: 83.2 nm | EE (%) [2, 4]: 74.33% | PDI (%) [2, 4]: 18.7% | Liver Editing A->G (%) (ALAS1 target site; dose 3 MPK IV): 17.19% | Quadrecept Editing A->G (%) (ALAS1 target site; dose 3 MPK IV): 0.11%

C=CCCCCCC(CCCCCC=C)OC(=O)CCCCCC(=O)OCC(COC(=O)CCCCCC(=O)OC(CCCCCC=C)CCCCCC=C)COC(=O)CCCN1CCCC1 [Compound (9), 1-[2-({[7-Oxo-7-(pentadeca-1,14-dien-8-yloxy)heptanoyl]oxy}methyl)-3-{[4-(pyrrolidin-1-yl)butanoyl]oxy}propyl] 7-pentadeca-1,14-dien-8-yl heptanedioate]
Diameter (nm) [2, 4]: 74.1 nm and 75.6 nm and 89.9 nm and 85.5 nm | EE (%) [2, 4]: 98.77% and 98.4% and 98.5% and 98.1% | PDI (%) [2, 4]: 12.2% and 9.7% and 8.1% and 9.8% | Liver Editing A->G (%) (ALAS1 target site; dose 1.5 MPK IV): 90.8% | Quadrecept Editing A->G (%) (ALAS1 target site; dose 1.5 MPK IV): 8.22%

CC/C=C\CCCC(CCC/C=C\CC)OC(=O)CCCCCCC(=O)OCC(COC(=O)CCCCCCC(=O)OC(CCC/C=C\CC)CCC/C=C\CC)COC(=O)CCCN1CCCC1 [Compound (13), 1-{2-[({8-Oxo-8-[(3Z,12Z)-pentadeca-3,12-dien-8-yloxy]octanoyl}oxy)methyl]-3-{[4-(pyrrolidin-1-yl)butanoyl]oxy}propyl} 8-(3Z,12Z)-pentadeca-3,12-dien-8-yl octanedioate]
Diameter (nm) [2, 4]: 79.7 nm | EE (%) [2, 4]: 96.75% | PDI (%) [2, 4]: 27.9% | Quadrecept Editing A->G (%) (ALAS1 target site; dose 3 MPK IV): 0.37%

C=CCCCCCCC(CCCCCCC=C)OC(=O)CCCCCC(=O)OCC(COC(=O)CCCCCC(=O)OC(CCCCCCC=C)CCCCCCC=C)COC(=O)CCCN1CCCC1 [Compound (4), 1-Heptadeca-1,16-dien-9-yl-7-[2-({[7-(heptadeca-1,16-dien-9-yloxy)-7-oxoheptanoyl]oxy}methyl)-3-{[4-(pyrrolidin-1-yl)butanoyl]oxy}propyl] heptanedioate]
Diameter (nm) [2, 4]: 72.1 nm | EE (%) [2, 4]: 99.03% | PDI (%) [2, 4]: 11% | Liver Editing A->G (%) (ALAS1 target site; dose 3 MPK IV): 64.7% | Quadrecept Editing A->G (%) (ALAS1 target site; dose 3 MPK IV): 4.16%

CC/C=C\CCCC(CCC/C=C\CC)OC(=O)CCCCCC(=O)OCC(COC(=O)CCCCCC(=O)OC(CCC/C=C\CC)CCC/C=C\CC)COC(=O)CCCN1CCCC1 [Compound (14), 1-{2-[({7-Oxo-7-[(3Z,12Z)-pentadeca-3,12-dien-8-yloxy]heptanoyl}oxy)methyl]-3-{[4-(pyrrolidin-1-yl)butanoyl]oxy}propyl} 7-(3Z,12Z)-pentadeca-3,12-dien-8-yl heptanedioate]
Diameter (nm) [2, 4]: 74.2 nm and 87.2 nm and 88.8 nm and 111.4 nm and 90.2 nm and 83.6 nm | EE (%) [2, 4]: 98.94% and 98.27% and 98.68% and 98.67% and 97.86% and 97.95% | PDI (%) [2, 4]: 11.6% and 9.6% and 11.5% and 8% and 11.4% and 10.2%

O=C(CCCCC(=O)OC(CCCCCC(F)(F)F)CCCCCC(F)(F)F)OCC(COC(=O)CCCCC(=O)OC(CCCCCC(F)(F)F)CCCCCC(F)(F)F)COC(=O)CCCN1CCCC1 [Compound (20), 1-(1,1,1,13,13,13-Hexafluorotridecan-7-yl)6-{2-[({6-[(1,1,1,13,13,13-hexafluorotridecan-7-yl)oxy]-6-oxohexanoyl}oxy)methyl]-3-{[4-(pyrrolidin-1-yl)butanoyl]oxy}propyl} hexanedioate]
Diameter (nm) [2, 3]: 153.73 nm | EE (%) [2, 3]: 25% | PDI (%) [2, 3]: 8.2%

C=CCCCC(CCCC=C)COC(=O)CCCCCCC(=O)OCC(COC(=O)CCCCCCC(=O)OCC(CCCC=C)CCCC=C)COC(=O)CCCN1CCCC1 [Compound (15), 1-(2-1[(8-oxo-8-{[2-(pent-4-en-1-yl)hept-6-en-1-yl]oxy}octanoyl)oxy]methyl}-3-{[4-(pyrrolidin-1-yl)butanoyl]oxy}propyl) 8-[2-(pent-4-en-1-yl)hept-6-en-1-yl] octanedioate]
Diameter (nm) [2, 4]: 96.6 nm | EE (%) [2, 4]: 94.81% | PDI (%) [2, 4]: 11.6% | Quadrecept Editing A->G (%) (ALAS1 target site; dose 3 MPK IV): 4.05%

C=CCCCC(CCCC=C)COC(=O)CCCCC(=O)OCC(COC(=O)CCCCC(=O)OCC(CCCC=C)CCCC=C)COC(=O)CCCN1CCCC1 [Compound (19), 1-(2-{[(6-Oxo-6-{[2-(pent-4-en-1-yl)hept-6-en-1-yl]oxy}hexanoyl)oxy]methyl}-3-{[4-(pyrrolidin-1-yl)butanoyl]oxy}propyl) 6-[2-(pent-4-en-1-yl)hept-6-en-1-yl] hexanedioate]
AVG EE(%) [1]: 98.2% | AVG PDI [1]: 0.08 | AVG Z Dia (nm) [1]: 130.75 nm | Diameter (nm) [2, 3]: 123 nm | EE (%) [2, 3]: 57.3% | PDI (%) [2, 3]: 9.9%

CC/C=C\CCCC(CCC/C=C\CC)COC(=O)CCCCC(=O)OCC(COC(=O)CCCCC(=O)OCC(CCC/C=C\CC)CCC/C=C\CC)COC(=O)CCCN1CCCC1 [Compound (24), 1-(6Z)-2-[(4Z)-Hept-4-en-1-yl]non-6-en-1-yl6-(2-{[(6-{[(6Z)-2-[(4Z)-hept-4-en-1-yl]non-6-en-1-yl]oxy}-6-oxohexanoyl)oxy]methyl}-3-{[4-(pyrrolidin-1-yl)butanoyl]oxy}propyl) hexanedioate]
AVG EE(%) [1]: 90.2% | AVG PDI [1]: 0.13 | AVG Z Dia (nm) [1]: 117.63 nm
